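Grown in 96-well plates, cells were treated for 48 hours with each compound at five concentrations. Insufficient inhibition: endpoint recorded as highest concentration tested. At the GI50, growth is halved. TGI marks complete inhibition of growth.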
Experiments:
Assay in all cases: DTP human tumour cell line panel, 48 h
HOP-92 NSCLC = test system: HOP-92 NSCLC
UACC-62 melanoma = test system: UACC-62 melanoma
UO-31 renal = test system: UO-31 renal
SF-539 CNS = test system: SF-539 CNS
PC-3 prostate = test system: PC-3 prostate
HL-60(TB) leukemia = test system: HL-60(TB) leukemia
TK-10 renal = test system: TK-10 renal
HS 578T breast = test system: HS 578T breast
LOX IMVI melanoma = test system: LOX IMVI melanoma
NCI-H460 lung = test system: NCI-H460 lung
MOLT-4 leukemia = test system: MOLT-4 leukemia
BT-549 breast = test system: BT-549 breast
NCI-H226 lung = test system: NCI-H226 lung
SN12C renal = test system: SN12C renal
MDA-MB-468 breast = test system: MDA-MB-468 breast
T-47D breast = test system: T-47D breast
MDA-MB-231 breast = test system: MDA-MB-231 breast
SK-MEL-5 melanoma = test system: SK-MEL-5 melanoma
IGROV1 ovarian = test system: IGROV1 ovarian
RXF 393 renal = test system: RXF 393 renal
M14 melanoma = test system: M14 melanoma
COLO 205 colon = test system: COLO 205 colon
EKVX NSCLC = test system: EKVX NSCLC
SF-268 CNS = test system: SF-268 CNS
MALME-3M melanoma = test system: MALME-3M melanoma
SK-OV-3 ovarian = test system: SK-OV-3 ovarian
MDA-MB-435 = test system: MDA-MB-435
SNB-19 CNS = test system: SNB-19 CNS
SNB-75 CNS = test system: SNB-75 CNS
A498 renal = test system: A498 renal
OVCAR-3 ovarian = test system: OVCAR-3 ovarian
SK-MEL-2 melanoma = test system: SK-MEL-2 melanoma
CCRF-CEM leukemia = test system: CCRF-CEM leukemia
OVCAR-8 ovarian = test system: OVCAR-8 ovarian
A549 NSCLC = test system: A549 NSCLC
ACHN renal = test system: ACHN renal
RPMI-8226 leukemia = test system: RPMI-8226 leukemia
U251 CNS = test system: U251 CNS
KM12 colon = test system: KM12 colon
HCC-2998 colon = test system: HCC-2998 colon
UACC-257 melanoma = test system: UACC-257 melanoma
SF-295 CNS = test system: SF-295 CNS
NCI-H522 lung = test system: NCI-H522 lung
786-0 renal = test system: 786-0 renal
HCT-15 colon = test system: HCT-15 colon
OVCAR-4 ovarian = test system: OVCAR-4 ovarian
SK-MEL-28 melanoma = test system: SK-MEL-28 melanoma
DU-145 prostate = test system: DU-145 prostate
SR leukemia = test system: SR leukemia
OVCAR-5 ovarian = test system: OVCAR-5 ovarian
HOP-62 NSCLC = test system: HOP-62 NSCLC
HT29 colon = test system: HT29 colon
CAKI-1 renal = test system: CAKI-1 renal
MCF7 breast = test system: MCF7 breast
K-562 leukemia = test system: K-562 leukemia
NCI-H23 lung = test system: NCI-H23 lung

C=C1CCC2C3(C)COC(c4ccccc4F)OC3CCC2(C)C1C/C=C1/C(=O)OCC1O (configuration not stated)
GI50 (HOP-92 NSCLC): 3.65 µM | TGI (HOP-92 NSCLC): 14.6 µM | GI50 (UACC-62 melanoma): 3.17 µM | TGI (UACC-62 melanoma): 12.1 µM | GI50 (UO-31 renal): 1.97 µM | TGI (UO-31 renal): 5.54 µM | GI50 (SF-539 CNS): 1.94 µM | TGI (SF-539 CNS): 3.52 µM | GI50 (PC-3 prostate): 3.45 µM | TGI (PC-3 prostate): 14.6 µM | GI50 (HL-60(TB) leukemia): 1.65 µM | TGI (HL-60(TB) leukemia): 5.48 µM | GI50 (TK-10 renal): 8.18 µM | TGI (TK-10 renal): 22.2 µM | GI50 (HS 578T breast): 4.4 µM | TGI (HS 578T breast): 47.9 µM | GI50 (LOX IMVI melanoma): 1.57 µM | TGI (LOX IMVI melanoma): 2.92 µM | GI50 (NCI-H460 lung): 3.36 µM | TGI (NCI-H460 lung): > 100 µM | GI50 (MOLT-4 leukemia): 3.31 µM | TGI (MOLT-4 leukemia): 17.2 µM | GI50 (BT-549 breast): 2.6 µM | TGI (BT-549 breast): 5.76 µM | GI50 (NCI-H226 lung): 1.67 µM | TGI (NCI-H226 lung): 3.3 µM | GI50 (SN12C renal): 1.99 µM | TGI (SN12C renal): 4.49 µM | GI50 (MDA-MB-468 breast): 1.62 µM | TGI (MDA-MB-468 breast): 3.63 µM | GI50 (T-47D breast): 3.76 µM | TGI (T-47D breast): 16.9 µM | GI50 (MDA-MB-231 breast): 2.41 µM | TGI (MDA-MB-231 breast): 5.41 µM | GI50 (SK-MEL-5 melanoma): 5.67 µM | TGI (SK-MEL-5 melanoma): 18.2 µM | GI50 (IGROV1 ovarian): 5.66 µM | TGI (IGROV1 ovarian): 19.7 µM | GI50 (RXF 393 renal): 3 µM | TGI (RXF 393 renal): 12.2 µM | GI50 (M14 melanoma): 4.24 µM | TGI (M14 melanoma): 19.2 µM | GI50 (COLO 205 colon): 2.96 µM | TGI (COLO 205 colon): 8.38 µM | GI50 (EKVX NSCLC): 15.4 µM | TGI (EKVX NSCLC): 30.3 µM | GI50 (SF-268 CNS): 3.85 µM | TGI (SF-268 CNS): 16.4 µM | GI50 (MALME-3M melanoma): 7.35 µM | TGI (MALME-3M melanoma): 21.8 µM | GI50 (SK-OV-3 ovarian): 18.6 µM | TGI (SK-OV-3 ovarian): 35.4 µM | GI50 (MDA-MB-435): 2.25 µM | TGI (MDA-MB-435): 5.79 µM | GI50 (SNB-19 CNS): 11.5 µM | TGI (SNB-19 CNS): 26.8 µM | GI50 (SNB-75 CNS): 2.82 µM | TGI (SNB-75 CNS): 12.8 µM | GI50 (A498 renal): 20.1 µM | TGI (A498 renal): 37.3 µM | GI50 (OVCAR-3 ovarian): 1.8 µM | TGI (OVCAR-3 ovarian): 3.7 µM | GI50 (SK-MEL-2 melanoma): 2.67 µM | TGI (SK-MEL-2 melanoma): 7.79 µM | GI50 (CCRF-CEM leukemia): 1.81 µM | TGI (CCRF-CEM leukemia): 6.53 µM | GI50 (OVCAR-8 ovarian): 1.98 µM | TGI (OVCAR-8 ovarian): 5.53 µM | GI50 (A549 NSCLC): 4.4 µM | TGI (A549 NSCLC): 94 µM | GI50 (ACHN renal): 1.85 µM | TGI (ACHN renal): 3.34 µM | GI50 (RPMI-8226 leukemia): 2.6 µM | TGI (RPMI-8226 leukemia): 7.35 µM | GI50 (U251 CNS): 1.96 µM | TGI (U251 CNS): 3.97 µM | GI50 (KM12 colon): 2.99 µM | TGI (KM12 colon): 10.3 µM | GI50 (HCC-2998 colon): 5.12 µM | TGI (HCC-2998 colon): 17.8 µM | GI50 (UACC-257 melanoma): 2.36 µM | TGI (UACC-257 melanoma): 13.2 µM | GI50 (SF-295 CNS): 2.13 µM | TGI (SF-295 CNS): 5.24 µM | GI50 (NCI-H522 lung): 1.57 µM | TGI (NCI-H522 lung): 3.12 µM | GI50 (786-0 renal): 2.02 µM | TGI (786-0 renal): 3.69 µM | GI50 (HCT-15 colon): 1.85 µM | TGI (HCT-15 colon): 4.52 µM | GI50 (OVCAR-4 ovarian): 2.45 µM | TGI (OVCAR-4 ovarian): 7.65 µM | GI50 (SK-MEL-28 melanoma): 2.92 µM | TGI (SK-MEL-28 melanoma): 7.63 µM | GI50 (DU-145 prostate): 4.09 µM | TGI (DU-145 prostate): 15.1 µM | GI50 (SR leukemia): 2.5 µM | TGI (SR leukemia): 19.9 µM | GI50 (OVCAR-5 ovarian): 2.47 µM | TGI (OVCAR-5 ovarian): 5.78 µM | GI50 (HOP-62 NSCLC): 15.8 µM | TGI (HOP-62 NSCLC): 35.1 µM | GI50 (HT29 colon): 1.9 µM | TGI (HT29 colon): 3.85 µM | GI50 (CAKI-1 renal): 3.84 µM | TGI (CAKI-1 renal): 13.3 µM | GI50 (MCF7 breast): 1.83 µM | TGI (MCF7 breast): 5.45 µM | GI50 (K-562 leukemia): 3.04 µM | TGI (K-562 leukemia): > 100 µM | GI50 (NCI-H23 lung): 10.8 µM | TGI (NCI-H23 lung): 26 µM
